Measured values from patent US12673043B2, “Use of inhibitors of the activator protein 1 (AP-1) for preventing adhesions” (The Board of Trustees of the Leland Stanford Junior …, priority 2020, dated 2026).

Legend:
phospho-JUN [1] = assay: In vitro T-5224 treatment of freshly isolated mouse adhesion fibroblasts, phospho-flow cytometry; assay type: cell-based; conditions: T-5224 10 μM, 24 hours, versus vehicle control (FIG. 22a)
Description: (§1) Recruitment of Human Specimens. Human abdominal adhesion and control specimens were obtained at the Stanford Hospital under Stanford University's IRB approval. Clinical inclusion criteria were as follows: For adhesion specimens—patients must have had at least one prior abdominal surgery, for control specimens—patients must have had no history of prior abdominal surgery. For all patients, surgery must be elective, and there must be no evidence of active inflammation/infection at time of operation. Written, informed consent was obtained from the patient in the pre-op holding area prior to surgery. Tissue was collected in the operating room, placed directly into sterile saline, and kept on ice for transport. Sample preparation and FACS isolation. Adhesion or control tissue from mouse or human specimens was minced on ice. The tissue was then digested for 60 minutes in a 37° C. water bath agitator in 2 mg/mL collagenase (collagenase type IV, ThermoFisher) digest buffer in Medium 199 (HyClone, GE Healthcare) consisting of 5% fetal bovine serum (Gibco FBS, ThermoFisher), DNase I (Worthington), Poloxamer 188 (Cat. P5556-100ML, Sigma), HEPES, and CaCl2. […] Cells were counted and re-suspended in FACS buffer. […]

phospho-STAT5 [2] = assay: as above; assay type: cell-based; conditions: T-5224 10 μM, 24 hours, versus vehicle control (FIG. 22a)
Description: as §1

phospho-JUN [3] = assay: Immunofluorescent staining of adhesion tissue after in vivo JUN inhibition; design: species or system mouse; conditions: IF staining of adhesion tissue, JUN mice induced with doxycycline, versus vehicle control (FIG. 6e-f)
Protocol: (§2) Mouse Model for Adhesions. A similar model for abdominal adhesion formation has been described previously by our laboratory. In brief, mice were anesthetized with inhaled isoflurane (Henry Schein Animal Health,) at a concentration of 1-2% in oxygen at 3 L/min. Ophthalmic ointment (Puralube petrolatum, Dechra Veterinary Products) was applied to the cornea to prevent desiccation. Buprenorphine (Buprenex, Reckitt Benckiser Pharmaceuticals Inc.) was administered subcutaneously prior to the surgery at a dose of 0.1 mg/kg. The mice were placed in the supine position on a clean operating surface. A heating pad was used beneath the surgical field to keep the animals warm throughout the procedure. The abdomens were shaved, and the skin of the abdomen was sterilized with three applications of betadine followed by 70% ethanol. During the procedure, the respiratory rate of the animals was monitored, and the isoflurane was titrated accordingly. A vertical midline skin incision was made in the abdomen with sharp scissors. The underlying abdominal wall was then opened vertically. The cecum was located and exteriorized. The cecal wall was abraded gently with 150-grit sandpaper. […] The animals were monitored during recovery from anesthesia. […]

PDGFRA = assay: as above; design: species or system mouse; conditions: IF staining of adhesion tissue, JUN mice induced with doxycycline (FIG. 6e)
Protocol: as §2

[4] = tested on: abdominal adhesion formation; assay: Mouse model for abdominal adhesions, gross and histologic scoring of adhesion tissue; assay type: in vivo; conditions: local application at surgery, JUN and wild-type mice
Protocol: as §2

phospho-JUN [5] = assay: In vivo JUN suppression in mouse adhesion model, phospho-flow cytometry of adhesion fibroblasts; conditions: applied intra-abdominally (10 uM in DMSO, locally at time of adhesion surgery), wild-type and JUN mice, 24 hours, versus vehicle control (FIG. 5d, 22b)
Protocol: (§3) Mouse Model for Adhesions. A similar model for abdominal adhesion formation has been described previously by our laboratory. In brief, mice were anesthetized with inhaled isoflurane (Henry Schein Animal Health,) at a concentration of 1-2% in oxygen at 3 L/min. Ophthalmic ointment (Puralube petrolatum, Dechra Veterinary Products) was applied to the cornea to prevent desiccation. Buprenorphine (Buprenex, Reckitt Benckiser Pharmaceuticals Inc.) was administered subcutaneously prior to the surgery at a dose of 0.1 mg/kg. The mice were placed in the supine position on a clean operating surface. A heating pad was used beneath the surgical field to keep the animals warm throughout the procedure. The abdomens were shaved, and the skin of the abdomen was sterilized with three applications of betadine followed by 70% ethanol. During the procedure, the respiratory rate of the animals was monitored, and the isoflurane was titrated accordingly. A vertical midline skin incision was made in the abdomen with sharp scissors. The underlying abdominal wall was then opened vertically. The cecum was located and exteriorized. The cecal wall was abraded gently with 150-grit sandpaper. The parietal peritoneum along the abdominal wall was similarly abraded with sandpaper and three, single, interrupted, 4-0, silk sutures were placed into the right abdominal sidewall, which served as a nidus for adhesion formation. The cecum was then placed anatomically adjacent to the right abdominal wall. The abdomen was briefly irrigated with warmed, sterile, normal saline. The irrigant was removed by blotting with a gauze sponge. The abdominal wall incision was closed with running 6-0 Monocryl suture, and the skin incision was closed with 6-0 nylon, horizontal mattress sutures. The animals were monitored during recovery from anesthesia. Additional buprenorphine was given every 6-12 hours as needed for pain. For sham surgery, animals were treated in an identical manner; however, incisions were closed without manipulation of abdominal organs.
(§4) In Vivo JUN Induction and Suppression. Doxycycline (2 mg/mL) or T-5224 (Cayman Chem, 10 uM) resuspended in DMSO were applied locally to adhesion sites at the time of adhesion surgery for JUN induction (in JUN mice) or suppression (in JUN and WT mice), respectively. Vehicle only was used for control.
(§5) Recruitment of Human Specimens. Human abdominal adhesion and control specimens were obtained at the Stanford Hospital under Stanford University's IRB approval. Clinical inclusion criteria were as follows: For adhesion specimens—patients must have had at least one prior abdominal surgery, for control specimens—patients must have had no history of prior abdominal surgery. […] Cells were counted and re-suspended in FACS buffer. […]

phospho-STAT5 [6] = assay: as above; conditions: applied intra-abdominally (10 uM in DMSO, locally at time of adhesion surgery), wild-type and JUN mice, 24 hours, versus vehicle control (FIG. 5d, 22b)
Protocol: as §3, §4, §5

SMILES: O=C(O)CCc1cc(C(=O)c2ccc(OC3CCCC3)cc2O)ccc1OCc1ccc2c(=O)[nH]oc2c1 [T-5224, 3-[5-(4-Cyclopentyloxy-2-hydroxybenzoyl)-2-[(3-oxo-1,2-benzoxazol-6-yl)methoxy]phenyl]propanoic acid]
- phospho-JUN expression (phospho-JUN [1]): significantly reduced
- phospho-STAT5 expression (phospho-STAT5 [2]): significantly reduced
- JUN expression at the tissue level (p-JUN+ cells) (phospho-JUN [3]): decreased
- PDGFRA expression in adhesion tissue (PDGFRA): Co-suppression
- adhesions, histologic assessment ([4]; H&E and trichrome, versus vehicle control (FIG. 6a-d)): significantly thinner and less fibrotic
- adhesion formation, gross assessment ([4]; POD3, versus vehicle control (FIG. 5e-f)): dramatic decrease
- phospho-JUN expression (phospho-JUN [5]): significantly decreased
- phospho-JUN expression (phospho-JUN [5]; listed as JUN inhibitor): significant decrease
- phospho-STAT5 expression (phospho-STAT5 [6]): significantly decreased
- phospho-STAT5 expression (phospho-STAT5 [6]; listed as JUN inhibitor): significant decrease
